“Also recorded” adds a separate entry of the source.
Legend:
[1] = system: Bleo-exposed rats; experiment: Plasma cytokine ELISA in rat model of bleomycin lung injury; format: in vivo; conditions: epidural RTX at day 3 after Bleo; day 7
Procedure: Rat Model of Lung Injury.
Epidural Application of RTX.
Cytokine Assays. […] Organ weights were evaluated post-mortem.

[2] = system: Bleo-exposed rats; experiment: Arterial blood gas analysis in rat model of bleomycin lung injury; conditions: intra-stellate RTX at day 3 after Bleo; day 7; vs. Bleo+Veh
Procedure: (§1) Rat Model of Lung Injury. Rats were randomized into three groups and evaluated at 1-week post-instillation as follows: sham rats, bleomycin (Bleo)-exposed rats with saline (epidural or intra-stellate injection), and Bleo-exposed rats with RTX (epidural or intra-stellate injection). Bleo (2.5 mg/kg, —0.15 mL) was instilled intra-tracheally to the lungs under 3% isoflurane anesthesia. Sham control rats underwent intra-tracheal instillation of saline. Animals were treated with RTX or vehicle (Veh; phosphate buffered saline) by either the epidural T1-T4 DRGs route (6 μg/ml, 10 μl/per ganglia) or intra-stellate ganglia administration (50μg/ml, 5 μl/per side) 3 days following Bleo delivery (FIG. 1A-B).
Intra-stellate Injection of RTX Rats were anesthetized using 2%-3% isoflurane:oxygen mixture. […] The skin from the rostral end of the sternum to the level of third rib was incised. Portions of the superficial and deep pectoral muscles and the first intercostal muscles were cut and dissected. To localize the left or right stellate ganglion, the left or right precava vein were separated with a hooked glass or steel rod laterally away from the brachiocephalic artery to expose the internal thoracic artery and the costocervical artery, which are descending branches of the right subclavian artery. Stellate ganglia and ansa subclavia are located medially to the origins of the internal thoracic and costocervical arteries. Then, RTX (5 μl, 50 mg/ml) was injected into the ganglia with a 5-μl Hamilton syringe (Microliter #95, Hamilton, Reno, Nev., USA.) over 30 s bilaterally. An image of this procedure is shown in FIG. 2A-B. Following these maneuvers, the thorax between the first and second intercostal spaces was closed with continuous 4-0 Dexon II coated braided absorbable polyglycolic acid suture and the skin was closed with 3-0 polypropylene suture and the chest evacuated. […]
(§2) Statistics. Statistical evaluation was analyzed using GraphPad Prism (GraphPad Software, San Diego, Calif. Version 8). Differences between treatments were determined using a Mixedeffects model for repeated-measures ANOVA. […]

[3] = system: Bleo-exposed rats; experiment: Lung plasma extravasation (Evans Blue) in rat model of bleomycin lung injury; conditions: day 7
Procedure: as §1
Epidural Application of RTX. The upper thoracic spinal afferents were ablated by epidural application of RTX. […] Briefly, rats were anesthetized using 2%-3% isoflurane:oxygen mixture. Rats were placed in the prone position and a small midline incision was made in the region of the T13-L1 thoracic vertebrae. Following dissection of the superficial muscles, two small holes (approximately 2 mm×2 mm) were made in the left and right sides of T13 vertebrae. A polyethylene catheter (PE-10) was inserted into the subarachnoid space via one hole and gently advanced about 4 cm approximating the T1 level. The upper thoracic sympathetic afferent ganglia were ablated by injecting resiniferatoxin (RTX; Sigma Aldrich), an ultra-potent agonist of the TRPV1 receptor into the subarachnoid space via the catheter. RTX (1 mg; Sigma Aldrich) was dissolved in a 1:1:8 mixture of ethanol, Tween 80 (Sigma-Aldrich), and isotonic saline. The first injection of RTX (6 μg/ml, 10 ul) was made at a very slow speed (˜1 minute) to minimize the diffusion of the drug. The catheter was then pulled back to T2, T3 and T4, respectively to perform serial injections (10 μl/each) at each segment. The catheter was withdrawn and the same injections were repeated on the other side. Silicone gel was used to seal the hole in the T13 vertebra. […]
Lung Plasma Extravasation, Tissue Extraction, and Quantification of Evans Blue. […]

[4] = system: Bleo-exposed rats; experiment: Lung tissue cytokine ELISA in rat model of bleomycin lung injury; conditions: day 7
Procedure: as §1
Epidural Application of RTX. The upper thoracic spinal afferents were ablated by epidural application of RTX. […] Briefly, rats were anesthetized using 2%-3% isoflurane:oxygen mixture. Rats were placed in the prone position and a small midline incision was made in the region of the T13-L1 thoracic vertebrae. Following dissection of the superficial muscles, two small holes (approximately 2 mm×2 mm) were made in the left and right sides of T13 vertebrae. A polyethylene catheter (PE-10) was inserted into the subarachnoid space via one hole and gently advanced about 4 cm approximating the T1 level. The upper thoracic sympathetic afferent ganglia were ablated by injecting resiniferatoxin (RTX; Sigma Aldrich), an ultra-potent agonist of the TRPV1 receptor into the subarachnoid space via the catheter. RTX (1 mg; Sigma Aldrich) was dissolved in a 1:1:8 mixture of ethanol, Tween 80 (Sigma-Aldrich), and isotonic saline. The first injection of RTX (6 μg/ml, 10 ul) was made at a very slow speed (˜1 minute) to minimize the diffusion of the drug. The catheter was then pulled back to T2, T3 and T4, respectively to perform serial injections (10 μl/each) at each segment. The catheter was withdrawn and the same injections were repeated on the other side. Silicone gel was used to seal the hole in the T13 vertebra. The skin overlying the muscle were closed with a 3-0 polypropylene simple interrupted suture, and betadine was applied to the wound. For post-procedure pain management, buprenorphine (0.05 mg/kg) was subcutaneously injected immediately after surgery and twice daily for 2 days.
Intra-stellate Injection of RTX Rats were anesthetized using 2%-3% isoflurane:oxygen mixture. […] The skin from the rostral end of the sternum to the level of third rib was incised. Portions of the superficial and deep pectoral muscles and the first intercostal muscles were cut and dissected. To localize the left or right stellate ganglion, the left or right precava vein were separated with a hooked glass or steel rod laterally away from the brachiocephalic artery to expose the internal thoracic artery and the costocervical artery, which are descending branches of the right subclavian artery. Stellate ganglia and ansa subclavia are located medially to the origins of the internal thoracic and costocervical arteries. Then, RTX (5 μl, 50 mg/ml) was injected into the ganglia with a 5-μl Hamilton syringe (Microliter #95, Hamilton, Reno, Nev., USA.) over 30 s bilaterally. […] Betadine was applied to the wound and the rats were allowed to recover from the anesthesia. […]
Cytokine Assays. Lung and plasma cytokines were measured with R&D cytokine ELISA assays (Minneapolis, Minn., USA) according to the manufacturer's instructions.

[5] = system: Bleo-exposed rats; experiment: Body weight and organ weights post-mortem in rat model of bleomycin lung injury
Procedure: as §1
Intra-stellate Injection of RTX Rats were anesthetized using 2%-3% isoflurane:oxygen mixture. […] The skin from the rostral end of the sternum to the level of third rib was incised. Portions of the superficial and deep pectoral muscles and the first intercostal muscles were cut and dissected. To localize the left or right stellate ganglion, the left or right precava vein were separated with a hooked glass or steel rod laterally away from the brachiocephalic artery to expose the internal thoracic artery and the costocervical artery, which are descending branches of the right subclavian artery. Stellate ganglia and ansa subclavia are located medially to the origins of the internal thoracic and costocervical arteries. Then, RTX (5 μl, 50 mg/ml) was injected into the ganglia with a 5-μl Hamilton syringe (Microliter #95, Hamilton, Reno, Nev., USA.) over 30 s bilaterally. […]
as §2

[6] = epidural RTX at day 3 after Bleo, vs. Bleo
[7] = stellate RTX at day 3 after Bleo, vs. Bleo+Veh
[8] = intra-stellate RTX at day 3 after Bleo, day 7, vs. Bleo+Veh

## C=C(C)[C@]12C[C@@H](C)[C@@]34O[C@](Cc5ccccc5)(O[C@@H]1[C@@H]3C=C(COC(=O)Cc1ccc(O)c(OC)c1)C[C@]1(O)C(=O)C(C)=C[C@@H]41)O2 [RTX, resiniferatoxin]
[1]
  Plasma cytokine levels in response to Bleo: reduced
[2]
  Arterial pCO2 (elevated by Bleo): reversed these changes
  Arterial pO2 (reduced by Bleo): reversed these changes
  Arterial sO2 (reduced by Bleo): reversed these changes
[3]; epidural RTX T1-T4 (6 μg/ml, 10 μl/per ganglia) at day 3 after Bleo 2.5 mg/kg intra-tracheal, vs. Bleo
  Plasma extravasation (Evans Blue areas / concentration in lung): reduced
[3]; intra-stellate RTX (50μg/ml, 5 μl/per side) at day 3 after Bleo, vs. Bleo+Veh
  Plasma extravasation (Evans Blue dye in the lung): marked reduction; also recorded: reduced
[4]; [6]
  Lung tissue IFNγ level: reduced
  Lung tissue IL-1β level: reduced
  Lung tissue IL-6 level: reduced
[4]; [7]
  Lung tissue IL-1β level: significantly reduced
  Lung tissue IL-6 level: significantly reduced
[5]; [8]
  Ratio of WLW to BW: significantly reduced
  Wet lung weight (WLW): significantly reduced
[5]; stellate ganglia administration of RTX in rats with lung injury
  Body weight: improved
